The source of these data is article PMC4104029, “Mechanism of Action of Compound-13: An α1-Selective Small Molecule Activator of AMPK” (Chemistry & Biology, 2014).

Type in all cases: cell-based
The target in experiment [1] is T1, WT FLAG-α2, β1, and γ1 in COS1 cells (Homo sapiens, UniProt P54619+P54646).
T1 construct: expressed in transfected cells; host or cells: COS-1 cells
As to the kind of experiment: Kinase activity in anti-FLAG immunoprecipitates from treated COS1 cells. To be noted: up to 100 μM, 1 h. The source says: (Needleman and Wunsch, 1970) and edited using ESPript (Gouet, et al., 2003). Secondary structure was derived from PDBID 2Y94. The phosphotransferase domain is shaded green (T-loop phosphorylation site is indicated with a star), the autoinhibitory domain in blue and the C-terminal domain in yellow. Regulatory elements in the α-linker are also indicated: α-hook in pink and α-RIMs in orange. Black lines indicate the position of the epitopes recognised by α-subunit specific antibodies used in this study. (B) COS-1 cells were seeded into 6-well plates and transiently transfected with pCMV-AMPKβ1, pCMV-AMPKγ1 and either pCMV-FLAG-AMPKα2 WT or pCMV-FLAG-AMPKα2/α1 LOOP chimera using FuGENE HD.
After 24 h cells were treated with the indicated compounds for 1 h and kinase activity determined in anti-FLAG immunoprecipitates under standard conditions. […]
Mouse hepatocytes were incubated with the indicated compounds in the absence (Resting) or presence of 10 mU/ml insulin for 60 min. Lysates were analysed by Western blotting using the indicated antibodies. […]
Yeast acetate CoA ligase (Sigma) was assayed in reactions containing 50 mM TES pH 7.4, 0.1 mM EDTA, 5 mM MgCl2, 4 mM ATP, 0.2 mM coenzyme A, 5 mM DTT and increasing concentrations of C2 and C13 (0 – 100 μM). The formation of pyrophosphate (PPi) was monitored by reduction of PPi-molybdate complexes as described in Methods. […]

The target in experiment [2] is T2, AMPKα1 complexes in primary hepatocytes (Mus musculus, UniProt O54950+Q5EG47).
T2 construct: AMPKα1 or AMPKα2 complexes were immunoprecipitated from hepatocyte extracts; endogenous in cells; host or cells: primary mouse hepatocytes
The experiment in a line: Isoform-specific immunoprecipitate kinase assay from hepatocytes. To be noted: 1 hr; washed immunoprecipitates. As for the experimental part:
(§1) Figure 4 The C2 Prodrug, C13, Potently Activates AMPK in Mouse Primary Hepatocytes (A) Isolated mouse hepatocytes were incubated with vehicle or the indicated concentrations of C13 for 1 hr. AICAR (0.5 mM) was included as a positive control. Cell lysates were analyzed using western blotting with the indicated antibodies. (B) AMPKα1 or AMPKα2 complexes were immunoprecipitated from hepatocyte extracts prepared as described in (A) and assayed for kinase activity using 0.2 mM AMARA and 0.1 mM ATP. Results are expressed as the mean Pi incorporated in picomoles per minute-milligram ± SD. […] Lysates were analyzed using western blotting with the indicated antibodies. (D) Mouse hepatocytes were treated with the indicated compounds for 1 hr, and adenine nucleotide ratios were determined using capillary electrophoresis of perchloric acid extracts. […] Lysates were analyzed using western blotting with the indicated antibodies. […] Lysates were analyzed using western blotting with the indicated antibodies. […]
(§2) AMPK phosphotransferase activity was assayed in reactions (50 μl) containing 50 mM HEPES, pH 7.4, 10 mM MgCl2, 0.1 mM EGTA, 1 mM DTT, 0.01% BRIJ-35, 100 μM [γ-^32P]ATP (∼250 CPM⋅pmol^−1) and 200 μM AMARA (AMARAASAAALARRR). […] Washed filters were dried and [^32P] incorporation determined by Cherenkov counting. […]

Experiment [3] concerns the target T3, AMPKα2 complexes in primary hepatocytes (Mus musculus, UniProt O54950+Q8BRK8).
T3 construct: AMPKα1 or AMPKα2 complexes were immunoprecipitated from hepatocyte extracts; endogenous in cells; host or cells: primary mouse hepatocytes
Described as above. Particulars: 1 hr; washed immunoprecipitates. As for the experimental part:
as §1, §2

T3 sequence (Q8BRK8 whole entry): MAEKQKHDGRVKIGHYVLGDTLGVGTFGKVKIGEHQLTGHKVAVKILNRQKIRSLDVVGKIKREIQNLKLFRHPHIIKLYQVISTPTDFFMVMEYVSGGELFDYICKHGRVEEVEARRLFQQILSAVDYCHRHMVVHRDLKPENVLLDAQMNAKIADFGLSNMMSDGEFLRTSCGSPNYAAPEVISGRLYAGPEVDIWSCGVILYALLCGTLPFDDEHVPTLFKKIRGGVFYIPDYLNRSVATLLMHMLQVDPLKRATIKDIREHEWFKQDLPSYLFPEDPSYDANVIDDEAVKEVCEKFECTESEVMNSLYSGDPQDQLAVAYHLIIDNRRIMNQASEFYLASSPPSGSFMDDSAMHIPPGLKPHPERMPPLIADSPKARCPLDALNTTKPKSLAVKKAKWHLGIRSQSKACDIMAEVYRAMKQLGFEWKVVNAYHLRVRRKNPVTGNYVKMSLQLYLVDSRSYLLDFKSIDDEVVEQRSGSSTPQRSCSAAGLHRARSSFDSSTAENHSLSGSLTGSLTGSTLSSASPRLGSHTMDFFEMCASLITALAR
T3 sequence (Q9R078 2-270 partner limits assumed): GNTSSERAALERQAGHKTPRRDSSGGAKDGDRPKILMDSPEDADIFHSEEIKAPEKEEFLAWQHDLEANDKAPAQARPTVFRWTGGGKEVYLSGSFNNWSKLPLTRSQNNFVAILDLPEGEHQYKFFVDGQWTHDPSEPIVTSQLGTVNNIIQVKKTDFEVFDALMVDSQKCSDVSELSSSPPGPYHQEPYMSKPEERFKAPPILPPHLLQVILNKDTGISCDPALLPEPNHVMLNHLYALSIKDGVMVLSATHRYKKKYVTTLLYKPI
T3 sequence (O54950 whole entry): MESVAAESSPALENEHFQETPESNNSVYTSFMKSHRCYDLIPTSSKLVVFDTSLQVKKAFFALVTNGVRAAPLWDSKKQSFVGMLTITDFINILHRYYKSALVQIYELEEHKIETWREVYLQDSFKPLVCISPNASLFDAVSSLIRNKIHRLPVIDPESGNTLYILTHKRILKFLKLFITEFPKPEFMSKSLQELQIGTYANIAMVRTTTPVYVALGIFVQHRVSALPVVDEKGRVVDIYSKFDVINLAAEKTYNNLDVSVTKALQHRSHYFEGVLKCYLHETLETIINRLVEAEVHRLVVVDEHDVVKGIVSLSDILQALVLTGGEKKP
T2 sequence (Q5EG47 whole entry): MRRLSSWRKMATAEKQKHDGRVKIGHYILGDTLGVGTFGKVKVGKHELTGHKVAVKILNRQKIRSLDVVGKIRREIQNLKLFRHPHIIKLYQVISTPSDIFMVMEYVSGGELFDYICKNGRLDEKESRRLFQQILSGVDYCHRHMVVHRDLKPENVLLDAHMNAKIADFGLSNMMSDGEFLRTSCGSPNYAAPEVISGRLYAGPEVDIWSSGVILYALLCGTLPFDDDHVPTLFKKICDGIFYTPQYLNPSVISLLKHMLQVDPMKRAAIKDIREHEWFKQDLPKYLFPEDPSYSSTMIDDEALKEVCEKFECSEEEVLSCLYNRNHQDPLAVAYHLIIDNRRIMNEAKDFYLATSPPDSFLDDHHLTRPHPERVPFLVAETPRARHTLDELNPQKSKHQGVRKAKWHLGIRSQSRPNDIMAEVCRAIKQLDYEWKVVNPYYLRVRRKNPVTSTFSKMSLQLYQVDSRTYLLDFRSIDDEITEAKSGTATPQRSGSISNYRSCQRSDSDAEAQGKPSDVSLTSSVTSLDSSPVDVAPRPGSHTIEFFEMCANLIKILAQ
T2 sequence (Q9R078 2-270 partner limits assumed): as the sequence (Q9R078 2-270 partner limits assumed) above
T2 sequence (O54950 whole entry): as the sequence (O54950 whole entry) above
T1 sequence (P54646 whole entry): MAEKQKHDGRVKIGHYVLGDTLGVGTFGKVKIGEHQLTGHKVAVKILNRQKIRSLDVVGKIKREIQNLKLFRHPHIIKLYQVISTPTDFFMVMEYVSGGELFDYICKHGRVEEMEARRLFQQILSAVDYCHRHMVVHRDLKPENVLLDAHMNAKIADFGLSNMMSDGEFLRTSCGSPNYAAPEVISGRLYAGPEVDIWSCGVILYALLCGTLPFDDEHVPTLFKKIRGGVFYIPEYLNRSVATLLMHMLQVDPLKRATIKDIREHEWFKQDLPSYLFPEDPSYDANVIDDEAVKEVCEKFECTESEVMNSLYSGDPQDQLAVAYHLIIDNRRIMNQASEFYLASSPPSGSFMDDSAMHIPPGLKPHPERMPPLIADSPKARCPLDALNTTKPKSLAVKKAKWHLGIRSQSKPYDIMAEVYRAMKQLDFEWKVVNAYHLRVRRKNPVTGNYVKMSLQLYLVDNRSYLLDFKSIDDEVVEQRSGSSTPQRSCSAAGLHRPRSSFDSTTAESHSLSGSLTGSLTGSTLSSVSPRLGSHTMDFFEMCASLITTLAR
T1 sequence (Q9Y478 whole entry partner): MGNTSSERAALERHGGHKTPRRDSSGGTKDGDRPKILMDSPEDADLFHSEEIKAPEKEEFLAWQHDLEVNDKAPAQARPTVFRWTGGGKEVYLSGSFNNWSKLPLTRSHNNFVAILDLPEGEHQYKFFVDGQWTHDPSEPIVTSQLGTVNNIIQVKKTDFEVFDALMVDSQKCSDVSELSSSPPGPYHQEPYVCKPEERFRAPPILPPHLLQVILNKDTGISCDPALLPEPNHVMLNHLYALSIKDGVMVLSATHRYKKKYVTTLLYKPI
T1 sequence (P54619 whole entry): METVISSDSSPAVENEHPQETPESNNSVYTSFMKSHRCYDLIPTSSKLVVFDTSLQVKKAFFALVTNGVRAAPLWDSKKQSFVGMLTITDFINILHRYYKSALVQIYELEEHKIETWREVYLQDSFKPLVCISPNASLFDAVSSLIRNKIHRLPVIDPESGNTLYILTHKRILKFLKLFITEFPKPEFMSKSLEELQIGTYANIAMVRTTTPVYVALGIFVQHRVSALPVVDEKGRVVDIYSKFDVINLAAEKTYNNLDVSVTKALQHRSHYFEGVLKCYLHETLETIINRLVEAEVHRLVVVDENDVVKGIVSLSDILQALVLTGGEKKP

In the case of `CC(C)C(=O)OCOP(=O)(OCOC(=O)C(C)C)c1ccc(C2=NOC(=O)C2)o1` [Compound C13], in experiment [1], the “kinase activation in cells” value is “unresponsive”. Moreover, the “concentration at which complexes were stimulated” value in experiment [2] came to 3 µM. Also, the “concentration above which activation was evident” value in experiment [3] is reported as “above 30 μM”.
